# Results published in patent US20200253877A1, “GEMCABENE, PHARMACEUTICALLY ACCEPTABLE SALTS THEREOF, COMPOSITIONS THEREOF AND METHODS OF USE THEREFOR” (NEUROBO PHARMACEUTICALS, INC., priority 2018, published 2020).
# Tests used:
# [1] = system: STAM™ mice, a murine model of NASH-HCC; assay: Murine STAM model of NASH-HCC: whole blood, plasma and liver biochemistry
# [2] = system: hepatic mRNA expression in STAM™ mice; assay: Murine STAM model of NASH-HCC: hepatic gene expression by quantitative RT-PCR; type: in vivo, mouse
# Experimental: A study was performed to evaluate the efficacy of gemcabene calcium salt hydrate Crystal Form 1 having a PSD90 of 52 μm as measured by laser light diffraction, in treating non-alcoholic steatosis hepatitis (NASH) in the murine STAM™ model of NASH-HCC.
# Briefly, two-day old neonatal C57BL/6 male mice were administered low-dose streptozotocin (STZ), and were subsequently fed a HFC diet from 4 weeks of age. In this model, the mice typically develop liver steatosis and diabetes, reaching steatohepatitis within 3 weeks, followed by cirrhosis within 8 weeks, and carcinoma within 16 weeks. In the current study, mice were administered daily oral gemcabene calcium salt hydrate Crystal Form 1 starting at week 6 of age and were sacrificed at week 9. […] These STAM™ groups were orally administered from week 6 one of the following: water-vehicle, gemcabene calcium salt hydrate Crystal Form 1 at 30, 100 and 300 mg/kg daily, or telmisartan ([…]®) 10 mg/kg daily. […] All groups were sacrificed at week 9. Vehicle, gemcabene calcium salt hydrate Crystal Form 1, or telmisartan were administered by oral gavage once daily.
# Various gene expression markers of liver metabolism were evaluated by Real-Time PCR (RT-PCR) in all mouse groups. Total RNA was extracted from liver samples using RNAiso (Takara Bio, Japan) according to the manufacturer's instructions. […] of RNA was reverse-transcribed using a reaction mixture containing 4.4 mM MgCl2 (F. Hoffmann-La Roche, Switzerland), 40 U RNase inhibitor (Toyobo, Japan), 0.5 mM dNTP (Promega, USA), 6.28 μM random hexamer (Promega), 5×first strand buffer (Promega), 10 mM dithiothreitol (Invitrogen, USA) and 200 U MMLV-RT (Invitrogen) in a final volume of 20 μL. The reaction was carried out for 1 hour at 37° C., followed by 5 minutes at 99° C. Real-time PCR was performed using real-time PCR DICE and SYBR premix Taq (Takara Bio). To calculate the relative mRNA expression level, the expression of each gene was normalized to that of reference gene 36B4 (gene symbol: RplpO). Information of PCR-primer sets is described in Tables 37A-37C. Statistical analyses were performed using the Bonferroni Multiple Comparison Test on GraphPad Prism 6 (GraphPad Software Inc., USA). P values <0.05 were considered statistically significant. Results are expressed as mean±SD.
# In order to calculate the relative mRNA expression level, the expression of each gene was normalized to that of the reference gene 36B4 (gene symbol: RplpO). The gene expression levels were measured by quantitative RT-PCR. Results were normalized with values for the vehicle-treated normal group. […] Gemcabene calcium salt hydrate Crystal Form 1 (PSD90=52 μm) modulated the mRNA expression of many hepatic genes that play a significant role in the liver homeostasis and injury.
# [3] = gemcabene Form 1 100 mg/kg, telmisartan 10 mg/kg
# [4] = vs Vehicle in NASH group, gemcabene Form 1 30 mg/kg
# [5] = vs Vehicle in NASH group, gemcabene Form 1 100 and 300 mg/kg
# [6] = vs Vehicle in NASH group, gemcabene Form 1 100 and 300 mg/kg, telmisartan 10 mg/kg
structure (smiles),measurement,setting,value
"CC(C)(CCCCOCCCCC(C)(C)C(=O)O)C(=O)O.[Ca] [6-(5-Carboxy-5-methyl-hexyloxy)-2,2-dimethylhexanoic acid calcium]",fasting whole blood glucose concentrations,"[1]; 3 days prior to termination, 8 h fasting, vs vehicle-treated STAM mice, gemcabene Form 1 30, 100, 300 mg/kg, telmisartan 10 mg/kg, oral daily wk 6-9",no significant differences
same,plasma CRP levels,[1]; STAM mice,decreased
same,plasma ALP levels,"[1]; at termination, vs vehicle-treated NASH group, gemcabene Form 1 100 and 300 mg/kg, telmisartan 10 mg/kg",significant increases
same,plasma creatinine levels,"[1]; at termination, vs vehicle-treated STAM group, gemcabene Form 1 300 mg/kg",significant increase
same,plasma ALT levels,"[1]; at termination, vs vehicle-treated STAM mice, gemcabene Form 1 100 mg/kg",significant decrease
same,whole blood glucose levels,"[1]; at termination, vs vehicle-treated STAM mice, gemcabene Form 1 30, 100, 300 mg/kg, telmisartan 10 mg/kg",no significant differences
same,plasma total cholesterol concentrations,"[1]; vs vehicle-treated STAM mice, gemcabene Form 1 30 mg/kg",no significant difference
same,plasma triglyceride concentrations,"[1]; vs vehicle-treated STAM mice, gemcabene Form 1 30, 100, 300 mg/kg (dose-dependent manner), telmisartan 10 mg/kg",significant decreases
same,liver triglyceride content,"[1]; vs vehicle-treated STAM mice, gemcabene Form 1 30, 100, 300 mg/kg, telmisartan 10 mg/kg",no significant differences
same,plasma total cholesterol concentrations,"[1]; vs vehicle-treated STAM mice, gemcabene Form 1 100 and 300 mg/kg, telmisartan 10 mg/kg",significant increases
same,LDL receptor gene expression,[2]; STAM mice,no effect
same,hepatic ApoC-III mRNA,[2]; STAM mice,significantly downregulated
same,"MMP-2 mRNA expression (relative, mean±SD)",[2]; gemcabene Form 1 100 mg/kg,0.5±0.2
same,"NF-κB mRNA expression (relative, mean±SD)",[2]; gemcabene Form 1 100 mg/kg,0.9±0.1
same,"Sulf-2 mRNA expression (relative, mean±SD)",[2]; gemcabene Form 1 100 mg/kg,3.8±0.7
same,"TIMP-1 mRNA expression (relative, mean±SD)",[2]; gemcabene Form 1 100 mg/kg,3.8±1.6
same,"TNF-α mRNA expression (relative to vehicle-treated normal group, mean±SD)",[2]; gemcabene Form 1 100 mg/kg,2.0±0.8
same,"ACC-1 mRNA expression (relative, mean±SD)",[2]; [3],0.7±0.1
same,"ADH-4 mRNA expression (relative, mean±SD)",[2]; [3],0.6±0.1
same,"CCR2 mRNA expression (relative, mean±SD)",[2]; [3],1.6±0.4
same,"CCR5 mRNA expression (relative, mean±SD)",[2]; [3],1.4±0.3
same,"CRP mRNA levels (relative, mean±SD)",[2]; [3],0.6±0.1
same,"MCP-1 mRNA expression (relative, mean±SD)",[2]; [3],1.7±0.7
same,"MIP-1β mRNA levels (relative, mean±SD)",[2]; [3],2.3±0.9
same,"ADH-4 mRNA expression (relative, mean±SD)",[2]; gemcabene Form 1 300 mg/kg,0.5±0.1
same,"CCR2 mRNA expression (relative, mean±SD)",[2]; gemcabene Form 1 300 mg/kg,1.7±0.7
same,"CCR5 mRNA expression (relative, mean±SD)",[2]; gemcabene Form 1 300 mg/kg,1.3±0.3
same,"CRP mRNA levels (relative, mean±SD)",[2]; gemcabene Form 1 300 mg/kg,0.5±0.1
same,"MCP-1 mRNA expression (relative, mean±SD)",[2]; gemcabene Form 1 300 mg/kg,1.6±0.7
same,"MIP-1β mRNA levels (relative, mean±SD)",[2]; gemcabene Form 1 300 mg/kg,2.8±1.4
same,"MMP-2 mRNA expression (relative, mean±SD)",[2]; gemcabene Form 1 300 mg/kg,0.9±0.2
same,"NF-κB mRNA expression (relative, mean±SD)",[2]; gemcabene Form 1 300 mg/kg,0.8±0.1
same,"Sulf-2 mRNA expression (relative, mean±SD)",[2]; gemcabene Form 1 300 mg/kg,3.3±0.9
same,"TIMP-1 mRNA expression (relative, mean±SD)",[2]; gemcabene Form 1 300 mg/kg,4.4±2.1
same,"TNF-α mRNA expression (relative to vehicle-treated normal group, mean±SD)",[2]; gemcabene Form 1 300 mg/kg,1.9±0.7
same,ANGPTL4 mRNA expression level,[2]; [4],no significant difference
same,IL-6 mRNA expression level,[2]; [4],no significant difference
same,Fetuin-A mRNA expression level,"[2]; vs Vehicle in NASH group, gemcabene Form 1 100 mg/kg",significant down-regulation
same,SCD mRNA expression level,"[2]; vs Vehicle in NASH group, gemcabene Form 1 300 mg/kg",significant up-regulation
same,hepatic LPL mRNA expression levels,"[2]; vs Vehicle in NASH group, gemcabene Form 1 30, 100 and 300 mg/kg, telmisartan 10 mg/kg",significant up-regulations
same,ANGPTL3 mRNA expression levels,[2]; [5],significant down-regulations
same,CXCL1/KC mRNA expression levels,[2]; [5],marked down-regulation
same,ANGPTL4 mRNA expression levels,[2]; [6],significant down-regulations
same,IL-6 mRNA expression level,[2]; [6],significant down-regulations
